Tests used:
CAR target gene CYP2B6 = assay: CYP induction: CYP2B6 transcript levels after CITCO (CAR inducer); assay type: cell-based, human
HepG2 cells [1] = assay: Mitochondrial content (mitochondrial to nuclear DNA ratio) after culture with DMSO; assay type: cell-based, human; settings: HepG2-CAR cultured with DMSO vs HepG2-CAR without DMSO
Text: (§1) To assess the cellular mitochondrial content the inventors determined the mitochondrial/nuclear DNA ratio. Total DNA was isolated with the QIAamp DNA Mini Blood kit (QIAgen) according to manufacturer's instructions.
(§2) For a list of PCR-primers used, see supplementary table 1.

HepaRG cells [2] = assay: as above; assay type: cell-based, human; settings: vs cells not cultured in presence of DMSO
Text: as §1, §2

HepaRG cells [3] = settings: human, 14 days, 1.7 %
Method: For testing, the cells were fully matured during 28 days in 12- or 24-well culture plates. […] For testing the effect of CAR overexpression HepaRG and HepaRG-CAR cultures of similar passage (±1 passage) were compared, between passage 15-19.
(§4) Protein levels of cell cultures were assessed with the Bio-Rad Protein Assay (Bio-Rad, Hercules, Calif.) according to manufacturer's instructions after lysis in 0.2 M NaOH for 1 h at 37° C.

CAR mRNA = CAR mRNA levels after culture with DMSO; assay type: cell-based, human
Method: (§3) RT-qPCR measurements were performed on a Lightcycler 480 (Roche) with Sensifast SYBR Green master mix (Bioline) according to manufacturer's instructions. […] Normalized mRNA levels are expressed as a percentage of the mean mRNA levels of two human liver samples normalized to 18S rRNA. The human liver samples were obtained from two female patients with liver adenoma and no elevated liver damage. […] The samples were taken after obtaining written informed consent and the procedure was approved by the Academic Medical Center's committee on human experimentation (protocol number 03/024).

HepaRG cells [4] = assay: Lactate production after culture with DMSO; assay type: cell-based, human
Method: The cultures were washed twice with PBS and then exposed to phenol-red free HepaRG culture medium with 1.5 mM ^15NH4Cl (Sigma), 2.27 mM D-galactose (Sigma), and 2 mM L-lactate (Sigma) without DMSO. Medium samples were taken after 45 min, 8 and 24 hours of incubation. Production or elimination rates were established by calculating the concentration changes of different compounds, as indicated below, in the test media in time, and were corrected for protein content per well.

HepaRG monolayers = settings: cited from earlier work
HepG2 cells [5] = settings: human, 1.7 %
Method: HepG2 cells were maintained in T75 flasks until 80-90% confluency after which they were propagated in new flasks. The cells were propagated similarly as HepaRG cells. HepG2 cells were seeded at a 1:3-1:4 ratio in 12 or 24 well plates.
as §4

AHR target gene CYP1A2 = settings: 24 h, 40 μM
Method: as §3
Transcript levels of CYP genes were compared in cultures with and without induction.

[6] = system: HepaRG+/-CAR monolayer cultures
Method: At the 0 h time point the cells were incubated for 5 s to correct for non-specific binding of the added compounds to the cells and the culture plate. Medium samples of the indicated time points were immediately frozen at −80° C. Prior to HPLC analysis samples were thawed on ice and deproteinized with the addition of 4 volumes of acetonitrile (for prednisolone and theophylline), vacuum evaporated and dissolved in water. Warfarin samples were instead deproteinized with 2 volumes of methanol and spun down for 5 minutes at 20000 g at 4° C. Supernatants were used for HPLC analysis.
Reverse-phase HPLC detection was done as follows. Deproteinized samples (100 μl for prednisolone and theophylline, 30 μl for warfarin) were applied to a Hypersil C18, 3 μm, 15 cm HPLC column (Thermo Scientific). Starting eluent consisted of 6.8 mM ammoniumformate (pH 3.9), followed by several steps of linear gradients to different concentrations of acetonitrile (ACN) (Biosolve, Valkenswaard, The Netherlands). […] Detection of prednisolone was performed at λabs=254 nm, theophylline at λabs=270 nm, warfarin at λexc=310 nm/λem=390 nm. Quantification was done by using calibration curves of prednisolone, theophylline, or warfarin.

With `Clc1ccc(-c2nc3sccn3c2/C=N/OCc2ccc(Cl)c(Cl)c2)cc1` [CITCO] the “fold induction of CYP2B6 transcript” value (CAR target gene CYP2B6; CITCO 1 μM, 24 h, control and modified HepaRG monolayers, independent of DMSO treatment) was 4.2-6.1 ×, the “fold induction of CYP2B6 transcript” value (CAR target gene CYP2B6; control HepaRG BALIAD culture without DMSO, CITCO 24 h) was 6.5 × and the “fold induction of CYP2B6 transcript” value (CAR target gene CYP2B6; modified HepaRG BALIAD culture without DMSO, CITCO 24 h) was 3.6 ×. The “total CYP2B6 mRNA level after induction, of human liver” value (CAR target gene CYP2B6; modified HepaRG BALIAD, CITCO 24 h) was no more than 1023% and the “total CYP2B6 transcript level after induction, of human liver” value (CAR target gene CYP2B6; modified HepaRG monolayer, CITCO 24 h) was no more than 430%.

For `C[S+](C)[O-]` [DMSO, dimethyl sulfoxide], the “increase of mitochondrial to nuclear DNA ratio” value (“increase … to nuclear DNA ratio” for short) (HepG2 cells [1]) was 1.3 ×, the “increase … to nuclear DNA ratio” value (HepaRG cells [2]; HepaRG-CAR monolayer) was 2 × and the “increase … to nuclear DNA ratio” value (HepaRG cells [2]; unmodified HepaRG monolayer) was 1.8 ×. For the same compound, the “reduction of protein content” value (HepaRG cells [3]) was 40%, the “reduction of total protein content” value (HepaRG cells [3]) was 19% and the “CAR mRNA level, of human liver” value (CAR mRNA; control HepaRG cells cultured with DMSO (5.3% without)) was 15%. For the same compound, the “CAR mRNA level, of human liver” value (CAR mRNA; modified HepaRG cells cultured with DMSO (108% without)) was 208%, the “reduction of lactate production” value (HepaRG cells [4]; HepaRG-CAR monolayer cultured with DMSO vs control cells without DMSO) was 92% and the “reduction of lactate production” value (HepaRG cells [4]; control HepaRG monolayer cultured with DMSO vs control cells without DMSO) was 57%. For the same compound, the “increase of cell leakage” value (HepaRG monolayers) was 3- to 4 fold, the “reduction of total cellular protein content” value (HepaRG monolayers) was “more than 50%” and the “reduction of total protein content” value (HepG2 cells [5]) was 15%-18.

For `COc1ccc2[nH]c([S+]([O-])Cc3ncc(C)c(OC)c3C)nc2c1` (centres unmarked) [omeprazole], the “total CYP1A2 mRNA level after induction, of human liver” value (AHR target gene CYP1A2) was no more than 31% and the “total CYP1A2 transcript level after induction, of human liver” value (AHR target gene CYP1A2) was no more than 23%.

In the case of `C[C@]12C=CC(=O)C=C1CC[C@@H]1[C@@H]2[C@@H](O)C[C@@]2(C)[C@H]1CC[C@]2(O)C(=O)CO` [prednisolone], the “clearance rate in HepaRG-CAR cultured with DMSO compared to all other conditions” value [6] is reported as “cleared at an increased rate”.

With `Cn1c(=O)c2[nH]cnc2n(C)c1=O` [theophylline, theophylline anhydrous] the clearance [6] was “could not reliably observe any clearance”.

For `CC(=O)CC(c1ccccc1)c1c(O)c2ccccc2oc1=O` (centres unmarked) [warfarin], the “clearance rate in HepaRG-CAR cultured with DMSO compared to all other conditions” value [6] was “cleared at an increased rate” and the “period of linear clearance” value ([6]; human, 1 μM) was 24 to 48 h.

— patent US20190256822A1, “HEPATIC CELL LINE RESISTANT TO DIMETHYL SULFOXIDE, CELL CULTURE AND USES THEREOF” (Academisch Medisch Centrum, priority 2016, published 2019)
